A word on the half-life: it is the time in which the quantity being followed falls by half.

The structures appear in SMILES notation. Values after ≈ are worked out from the molar mass of the structure shown. Like-named read-outs stand apart in the source and are kept apart here.

For series [1] the following is noted: cited from earlier work.
Another series relates to human platelets. The series can be described thus: Platelet aggregation inhibitory activities in vitro (ADP-induced, human platelet-rich plasma). The conditions noted are these: for IC50: Homo sapiens, Platelet, ADP final concentration 4 μM, 37° C.; for platelet aggregation inhibitory activities (in words): compared with natural type prostacyclin or other compounds. It is filed as cell-based. Here is the method: Platelet aggregation inhibitory activities of test compounds in vitro were measured by using human platelets.
Into a plastic container containing one volume of a 3.8% sodium citrate solution, 9 volumes of blood of a healthy person was collected, and the container was gently turned over for admixing. The mixture was centrifugally separated at 1,000 rpm for 10 minutes at room temperature, whereupon the supernatant was taken as a platelet-rich plasma (PRP). The lower layer was further centrifugally separated at 3,000 rpm for 15 minutes at room temperature, whereupon the supernatant was taken as a platelet-poor plasma (PPP). PRP was diluted with PPP so that the number of platelets became about 30×10^4 /μl. An aggregometer was calibrated, and then 200 μl of PRP thus prepared was heated at 37° C. for one minute. Then, 25 μl of a solution obtained by diluting a test compound with a physiological sodium chloride solution, was added thereto, and the mixture was heated at 37° C. for one minute. Then, […] of an adenosine-5'-1.5 sodium diphosphate (ADP, Sigma) solution was added thereto so that the final concentration would be 4 μM, whereby the change in transmittance was recorded by the aggregometer. The transmittance was measured with respect to the solution immediately after dissolving the test compound in the physiological sodium chloride solution and the solution after leaving it at 25° C. for 24 hours. The solution of the test compound was dissolved in a physiological sodium chloride solution and then used by diluting it with a physiological sodium chloride solution.
Aggregation inhibition (%)=(1-T/T0)×100
T0 : Transmittance in the case where the physiological sodium chloride solution was added.
T: Transmittance in the case where the test compound was added.

The nature of series [2]: Stability test in an aqueous solution. The conditions noted are these: for half-life / remaining at 168 h / remaining at 480 h: physiological saline, 25° C., 10 μg/ml in physiological sodium chloride solution; for remaining at 168 h: 7 days, read-out: Remaining ratio 7 days; for remaining at 480 h: 20 days, read-out: Remaining ratio 20 days. It is filed as physicochemical. Here is the method: A test compound was dissolved in ethanol to a concentration of 1 mg/ml. Then, it was diluted with a physiological sodium chloride solution to obtain a solution having a concentration of 10 μg/ml. The solution was stored at 25° C., and the remaining ratio of the test compound was measured as time passed. The remaining ratio was quantitatively analyzed by an internal standard (methyl benzoate) method using high performance liquid chromatography (Shimadzu LC9A, SPC-6AU; Milipore 805-DS). The column used was YMC AM312 (ODS), and the eluent used was a solvent mixture of acetonitrile and a 1% triethylamine-phosphoric acid buffer solution (pH6.3).

Where [3] appears, read: solution immediately after dissolving, read-out: IC50 Immediately after preparation.
[4] abbreviates: solution left at 25° C. for 24 hours, read-out: IC50 24 hours later.

Regarding `CCCCC[C@H](O)C#C[C@@H]1[C@H]2C/C(=C/CCCC(=O)O)O[C@H]2C(F)(F)[C@H]1O` [10,10-difluoro-13,14-dehydroprostacyclin], the half-life result in series [1] (reported in literature) is “about 24 hours”.

As to `CCCC[C@H](C)C[C@H](O)/C=C/[C@@H]1[C@@H]2[C@H](C[C@H]1O)O/C(=C\CCCC(=O)O)C2(F)F` [Compound 11, sodium 5-[(1S,5R,6R,7R)-2-oxa-4,4-difluoro-7-hydroxy-6-{(3S,5S)-3-hydroxy-5-methyl-E-1-nonenyl}bicyclo[3.3.0]octan-3-ylidene]pentanoate], the IC50 with human platelets (setting [3]) turned out to be 0.0086 µg/mL. For the same compound, the IC50 with human platelets (setting [4]) is 0.0078 µg/mL. Besides, the “platelet aggregation inhibitory activities (in words)” value in the series with human platelets was “activities close to natural type prostacyclin”. In series [2], the half-life is more than 90 days, the remaining at 168 h came out at 102% and the remaining at 480 h came to 96.8%.

Turning to `O=C(O)CCC/C=C1\O[C@H]2C[C@@H](O)[C@H](/C=C/[C@@H](O)C3CCCC3)[C@H]2C1(F)F` [Compound 13, sodium 5-[(1S,5R,6R,7R)-2-oxa-4,4-difluoro-7-hydroxy-6-{(3S)-3-cyclopentyl-3-hydroxy-E-1-propenyl}bicylco[3.3.0]octan-3-ylidene]pentanoate], the IC50 in the series with human platelets (setting [3]) amounted to 0.0663 µg/mL. Further, the IC50 with human platelets (setting [4]) came to 0.0629 µg/mL. Also, in series [2], the half-life is more than 90 days, the remaining at 168 h is 100% and the remaining at 480 h worked out at 98%.

For the compound `CCC#CCC(C)[C@H](O)/C=C/[C@@H]1[C@@H]2[C@H](C[C@H]1O)O/C(=C\CCCC(=O)O)C2(F)F` (stereo partly drawn) [Compound 15, sodium 5-[(1S,5R,6R,7R)-2-oxa-4,4-difluoro-7-hydroxy-6-{(3S,4RS)-3-hydroxy-4-methyl-E-1-nonen-6-ynyl}bicyclo-[3.3.0]octan-3-ylidene]pentanoate], the IC50 with human platelets (setting [3]) turned out to be 0.00079 µg/mL. For the same compound, in the series on human platelets (setting [4]), the IC50 was 0.00078 µg/mL. The “platelet aggregation inhibitory activities (in words)” value with human platelets is given as “even higher activities than natural type prostacyclin”. In series [2], the half-life is more than 90 days, the remaining at 168 h amounted to 98.9% and the remaining at 480 h stood at 97.8%.

Consider `CCC#CC[C@H](C)[C@H](O)/C=C/[C@@H]1[C@@H]2[C@H](C[C@H]1O)O/C(=C\CCCC(=O)O)C2(F)F` [Compound 17, sodium 5-[(1S,5R,6R,7R)-2-oxa-4,4-difluoro-7-hydroxy-6-{(3S,4S)-3-hydroxy-4-methyl-E-1-nonen-6-ynyl}bicyclo[3.3.0]octan-3-ylidene]pentanoate], for which, in the series with human platelets (setting [3]), the IC50 was 0.00038 µg/mL. Besides, the IC50 with human platelets (setting [4]) is 0.00039 µg/mL. Moreover, in the series on human platelets, the “platelet aggregation inhibitory activities (in words)” value is listed as “even higher activities than natural type prostacyclin”. Also, in series [2], the half-life is more than 90 days, the remaining at 168 h stood at 102% and the remaining at 480 h amounted to 100%.

For `CCCCC[C@H](O)/C=C/[C@@H]1[C@@H]2[C@H](C[C@H]1O)O/C(=C\CCCC(=O)O)C2(F)F` [Compound 19, sodium 5-[(1S,5R,6R,7R)-2-oxa-4,4-difluoro-7-hydroxy-6-{(3S)-3-hydroxy-E-1-octenyl}bicyclo[3.3.0]octan-3-ylidene]pentanoate], the IC50 in the series with human platelets (setting [3]) was found to be 0.0561 µg/mL. Also, the IC50 in the series on human platelets (setting [4]) was 0.0604 µg/mL. In series [2], the half-life was more than 90 days, the remaining at 168 h is 99.3% and the remaining at 480 h was 97.2%.

Consider `Cc1cccc(C[C@H](O)/C=C/[C@@H]2[C@@H]3[C@H](C[C@H]2O)O/C(=C\CCCC(=O)O)C3(F)F)c1` [Compound 21, sodium 5-[(1S,5R,6R,7R)-2-oxa-4,4-difluoro-7-hydroxy-6-{(3S)-3-hydroxy-4-(3-methylphenyl)-E-1-butenyl}bicyclo[3.3.0]octan-3-ylidene]pentanoate], for which, in the series on human platelets (setting [3]), the IC50 came out at 0.0087 µg/mL. In addition, in the series on human platelets (setting [4]), the IC50 was determined as 0.0089 µg/mL. In addition, in series [2], the half-life was more than 90 days, the remaining at 168 h came to 101% and the remaining at 480 h is 100%.

`CCCC[C@H](C)C[C@@H](O)/C=C/[C@@H]1[C@@H]2[C@H](C[C@H]1O)O/C(=C\CCCC(=O)O)C2(F)F` [Compound 23]: the IC50 in the series with human platelets (setting [3]) was determined as 0.059 µg/mL (≈ 0.142 µM). In addition, in the series with human platelets (setting [4]), the IC50 came to 0.0582 µg/mL (≈ 0.14 µM). In series [2], the half-life is more than 90 days, the remaining at 168 h was determined as 100% and the remaining at 480 h was 100%.

Turning to `CCC#CCC(C)[C@@H](O)/C=C/[C@@H]1[C@@H]2[C@H](C[C@H]1O)O/C(=C\CCCC(=O)O)C2(F)F` (stereo partly drawn) [Compound 25, sodium 5-[(1S,5R,6R,7R)-2-oxa-4,4-difluoro-7-hydroxy-6-{(3R,4RS)-3-hydroxy-4-methyl-E-1-none-6-ynyl}bicyclo[3.3.0]octan-3-ylidene]pentanoate], in the series on human platelets (setting [3]), the IC50 is 0.027 µg/mL. For the same compound, the IC50 in the series on human platelets (setting [4]) was 0.0281 µg/mL. In addition, in series [2], the half-life is more than 90 days, the remaining at 168 h is 101% and the remaining at 480 h is 99.8%.

With `CCC#CC[C@H](C)[C@@H](O)/C=C/[C@@H]1[C@@H]2[C@H](C[C@H]1O)O/C(=C\CCCC(=O)O)C2(F)F` [Compound 27], in the series with human platelets (setting [3]), the IC50 amounted to 0.0084 µg/mL (≈ 0.0204 µM). Further, the IC50 in the series with human platelets (setting [4]) came out at 0.008 µg/mL (≈ 0.0194 µM). In the series on human platelets, the “platelet aggregation inhibitory activities (in words)” value is “activities close to natural type prostacyclin”. Also, in series [2], the half-life is more than 90 days, the remaining at 168 h is 99.5% and the remaining at 480 h was found to be 100%.

As to `Cc1cccc(C[C@@H](O)/C=C/[C@@H]2[C@@H]3[C@H](C[C@H]2O)O/C(=C\CCCC(=O)O)C3(F)F)c1` [Compound 29, sodium 5-[(1S,5R,6R,7R)-2-oxa-4,4-difluoro-7-hydroxy-6-{(3R)-3-hydroxy-4-(3-methylphenyl)-E-1-butenyl}bicyclo[3.3.0]octan-3-ylidene]pentanoate], the IC50 in the series on human platelets (setting [3]) was more than 0.2 µg/mL. Besides, the IC50 in the series with human platelets (setting [4]) was more than 0.2 µg/mL. In addition, in series [2], the half-life was more than 90 days, the remaining at 168 h is 99.1% and the remaining at 480 h came to 99.3%.

Consider `CCCCC[C@H](O)C#C[C@@H]1[C@@H]2[C@H](C[C@H]1O)O/C(=C\CCCC(=O)O)C2(F)F` [Compound 31, sodium 5-[(1S,5R,6R,7R)-2-oxa-4,4-difluoro-7-hydroxy-6-{(3S)-3-hydroxy-1-octynyl}bicyclo[3.3.0]octan-3-ylidene]pentanoate, reference compound], for which the IC50 in the series with human platelets (setting [3]) was determined as 0.0737 µg/mL. For the same compound, in the series with human platelets (setting [4]), the IC50 was found to be 0.0758 µg/mL. Further, the “platelet aggregation inhibitory activities (in words)” value with human platelets was “low activities as compared with other compounds”. Also, the “physiological activities (in words)” value in the series on human platelets (stated generally as physiological activities) is “physiological activities are inadequate and substantially lower than natural type prostacyclin”. Further, in series [2], the “chemical stability (in words)” value was “chemical stability substantially equal to other compounds”, the half-life is more than 90 days, the remaining at 168 h is 99.5% and the remaining at 480 h worked out at 97%.

`CCCCC[C@H](O)/C=C/[C@@H]1[C@H]2C/C(=C/CCCC(=O)O)O[C@H]2C[C@H]1O` [PGI2 Na, reference compound]: the IC50 with human platelets (setting [3]) was 0.0021 µg/mL (≈ 0.00596 µM); in the series on human platelets (setting [4]), more than 0.2 µg/mL.

In the case of `CCCCC[C@H](O)/C=C/[C@@H]1[C@H]2C/C(=C/CCCC(=O)O)O[C@H]2C[C@H]1O` [natural type prostacyclin], the half-life entry in series [1] (as mentioned above, conditions not restated) is listed as “about 10 minutes”. The “half-life in an aqueous solution” value in series [1] (pH7.48 at 25° C.) was 0.00729 days.

Source of the values: US5616732A, “Intermediates for difluoroprostacyclins and methods for their production” (Asahi Glass Company Ltd., priority 1994, dated 1997).
